# Patent US20240083839A1, “COMPOSITIONS AND METHODS FOR TREATING NEURODEGENERATIVE DISEASES AND DISORDERS” (The Regents of the University of California, priority 2020, published 2024)
# Structures can show the parent of a compound that is named as a salt.
# Test system: SirT1 levels in N2a-E4 cells
# Assay: SirT1 levels by AlphaLISA in ApoE4-transfected N2a cells
# Type: cell-based, murine
# Settings: for SirT1 increase: N2a-E4 cells
# Procedure: Prompted by the emerging importance of the associations between ApoE4 and the expression/protein levels of SirT1, high-throughput screening (HTS) of the UCLA compound library was performed using AlphaLISA to detect SirT1 levels in murine neuroblastoma cells stably transfected with ApoE4 (E4-N2a) to identify SirT1 enhancers. […] In the in vivo study, mice were treated orally at 40 mkd (20 mg/kg BID) for 56 days and underwent assessment of cognition in the Novel Object Recognition (NOR) testing paradigm. […] The performance of A03-treated E4-AD mice (FIG. 5A) improved to level of non-transgenic vehicle-treated mice.
SMILES,SirT1 SOμM,SirT1 SμM,SirT1 increase
N[C@@H](CO)C(=O)NCCc1ccc(Cl)cc1 [MP-107],"A, A (A >20%)","A, A (A >20%)",
"C[C@H](N)C(=O)O[C@@H]1CCC[C@H]1c1ccc(Cl)cc1.Cl (single isomer, unassigned) [MP-90]","a, a (a <250%)","a, a (a <250%)",
"O=C1NCc2ccccc2C[C@@H]1N[C@@H](c1ccccc1)[C@H](O)c1ccccc1 (stereo in doubt) [MP-102, 4(R)-(1R,2S)-1,2-diphenyl-2-hydroxyethylamino-2,3,4,5-tetrahydro-1H-2-benzazepin-3-one]","a, a (a <250%)","a, a (a <250%)",
"C[C@H](NC(=O)OC(C)(C)C)C(=O)N[C@@H]1CCC[C@@H]1c1ccc(Cl)cc1 (single isomer, unassigned) [MP-96]","a, a (a <250%)","a, a (a <250%)",
"C[C@H](N)C(=O)O[C@H]1CCC[C@H]1c1ccc(Cl)cc1.Cl (single isomer, unassigned) [MP-94]",A (A >20%),a (a <250%),
"C[C@H](NC(=O)OC(C)(C)C)C(=O)N[C@H]1CCC[C@H]1c1ccc(Cl)cc1 (mixture of isomers) [MP-95, tert-butyl-((S)-1-(((±)-cis-2-(4-chlorophenyl)cyclopentyl)amino)-1-oxopropan-2-yl)carbamate]","a, a (a <250%)","a, a (a <250%)",
"C[C@H](N)C(=O)N[C@H]1Cc2ccccc2CNC1=O.Cl [MP-105, (S)-2-amino-N—((S)-3-oxo-2,3,4,5-tetrahydro-1H-benzo[c]azepin-4-yl)propanamide hydrochloride]","a, a (a <250%)","a, a (a <250%)",
"C[C@H](N)C(=O)Nc1cccc2ccccc12 [MP-54, (S)-2-amino-N-(naphthalen-1-yl)propanamide]",C (C = 100% increase versus control),A (A >20%),
"C[C@H](NC(=O)OC(C)(C)C)C(=O)OC(C)(C)Cc1ccc(C(F)(F)F)cc1 [MP-75, 2-methyl-1-(4-(trifluoromethyl)phenyl)propan-2-yl 2-((tert-butoxycarbonyl)amino)propanoate]","a, a (a <250%)","a, a (a <250%)",
"C[C@H](N)C(=O)NC(C)(Cc1cc(F)cc(F)c1)Cc1cc(F)cc(F)c1 [MP-106, (S)-2-amino-N-(1,3-bis(3,5-difluorophenyl)-2-methylpropan-2-yl)propanamide hydrochloride]","a, a (a <250%)","a, a (a <250%)",
"C[C@H](N)C(=O)NC(C)(C)Cc1ccc(F)cc1.Cl [MP-83, (S)-2-amino-N-(1-(4-fluorophenyl)-2-methylpropan-2-yl)propanamide hydrochloride]",A (A >20%),a (a <250%),
"C[C@H](N)C(=O)O[C@@H]1CCC[C@H]1c1ccc(Cl)cc1.Cl [MP-89, (S)-(1R,2S)-2-(4-chlorophenyl)cyclopentyl 2-aminopropanoate hydrochloride]",A (A >20%),a (a <250%),
"C[C@H](NC(=O)OC(C)(C)C)C(=O)O[C@H]1CCC[C@H]1c1ccc(Cl)cc1 (single isomer, unassigned) [MP-91]","a, a (a <250%)","a, a (a <250%)",
"C[C@H](N)C(=O)N(C)[C@H]1CCC(c2ccc(Cl)c(Cl)c2)c2ccccc21.Cl (stereo in doubt) [MP-81, (S)-2-amino-N-((1S,4R)-4-(3,4-dichlorophenyl)-1,2,3,4-tetrahydronaphthalen-1-yl)-N-methylpropanamide hydrochloride]","B, B (B >50%)","B, B (B >50%)",
"C[C@H](NC(=O)OC(C)(C)C)C(=O)O[C@H]1CCC[C@@H]1c1ccc(Cl)cc1 (single isomer, unassigned) [MP-88]","a, a (a <250%)","a, a (a <250%)",
"C[C@H](N)C(=O)N[C@H]1CCC[C@@H]1c1ccc(Cl)cc1.Cl [MP-86, (S)-2-amino-N-((1S,2R)-2-(4-chlorophenyl)cyclopentyl)propanamide]",B (B >50%),A (A >20%),
"CC12CC3CC(C)(C1)CC(N)(C3)C2 [memantine, reference compound]",,,did not increase SirT1
"C[C@H](NC(=O)OC(C)(C)C)C(=O)N(C)[C@H]1CCC(c2ccc(Cl)c(Cl)c2)c2ccccc21 (stereo in doubt) [MP-80, tert-butyl ((S)-1-(((1S,4R)-4-(3,4-dichlorophenyl)-1,2,3,4-tetrahydronaphthalen-1-yl)(methyl)amino)-1-oxopropan-2-yl)carbamate]","a, a (a <250%)","a, a (a <250%)",
"Cl.N[C@H]1Cc2cc(Cl)ccc2CNC1=O [MP-109, (S)-4-amino-7-chloro-4,5-dihydro-1H-benzo[c]azepin-3(2H)-one]",B (B >50%),A (A >20%),increases SirT1
"C[C@H](N)C(=O)NC(C)(C)c1ccc(Cl)cc1.Cl [MP-101, (S)-2-amino-N-(2-(4-chlorophenyl)propan-2-yl)propanamide hydrochloride]",B (B >50%),a (a <250%),
"C[C@H](N)C(=O)N[C@H]1Cc2ccccc2CN(C)C1=O.Cl [MP-104, (S)-2-amino-N—((S)-2-methyl-3-oxo-2,3,4,5-tetrahydro-1H-benzo[c]azepin-4-yl)propanamide hydrochloride]",A (A >20%),a (a <250%),
"N[C@H]1Cc2ccccc2CNC1=O [MP-71, (S)-4-amino-4,5-dihydro-1H-benzo[c]azepin-3(2H)-one hydrochloride]",C (C = 100% increase versus control),B (B >50%),
C[C@H](Nc1ccccc1-c1ccccc1)C(N)=O [MP-60],B (B >50%),A (A >20%),
"C[C@H](N)C(=O)NC(C)(C)Cc1ccncc1.Cl [MP-100, (S)-2-amino-N-(2-methyl-1-(pyridin-4-yl)propan-2-yl)propanamide hydrochloride]","A, A (A >20%)","A, A (A >20%)",
"C[C@H](NC(=O)OC(C)(C)C)C(=O)O[C@H]1CCC[C@H]1c1ccc(Cl)cc1 (single isomer, unassigned) [MP-92]","a, a (a <250%)","a, a (a <250%)",
"C[C@H](NC(=O)OC(C)(C)C)C(=O)N[C@H]1CCC[C@@H]1c1ccc(Cl)cc1 [MP-85, tert-butyl ((S)-1-(((1S,2R)-2-(4-chlorophenyl)cyclopentyl)amino)-1-oxopropan-2-yl)carbamate]","a, a (a <250%)","a, a (a <250%)",
CN1Cc2ccccc2C[C@H](N)C1=O [MP-108],"A, A (A >20%)","A, A (A >20%)",
"CNCCC(Oc1ccc(C(F)(F)F)cc1)c1ccccc1 (centres unmarked) [fluoxetine, reference compound]",,,did not increase SirT1
"C[C@H](N)C(=O)NC1CCc2ccccc2NC1=O (stereo partly drawn) [MP-84, (2S)-2-amino-N-(2-oxo-2,3,4,5-tetrahydro-1H-benzo[b]azepin-3-yl)propanamide hydrochloride]",A (A >20%),a (a <250%),
"C[C@H](NC(=O)OC(C)(C)C)C(=O)O[C@H]1CCC[C@@H]1c1ccc(Cl)cc1 (single isomer, unassigned) [MP-87]","a, a (a <250%)","a, a (a <250%)",
